From US8487108B2, “Piperidinyl carbamate intermediates for the synthesis of aspartic protease inhibitors” (Vitae Pharmaceuticals, Inc., priority 2005, dated 2013)

Target: T1, trypsin-activated recombinant human renin (Homo sapiens, UniProt P00797)
T1 sequence (P00797 67-406): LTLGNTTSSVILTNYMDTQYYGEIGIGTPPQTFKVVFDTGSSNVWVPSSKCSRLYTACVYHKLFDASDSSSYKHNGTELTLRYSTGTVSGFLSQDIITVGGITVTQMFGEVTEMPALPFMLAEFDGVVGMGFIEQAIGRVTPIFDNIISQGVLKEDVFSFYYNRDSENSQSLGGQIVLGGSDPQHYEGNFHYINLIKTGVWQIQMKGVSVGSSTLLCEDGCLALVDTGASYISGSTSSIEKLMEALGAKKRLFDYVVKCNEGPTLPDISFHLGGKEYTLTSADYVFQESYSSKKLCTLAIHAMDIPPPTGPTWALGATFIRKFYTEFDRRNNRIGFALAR
Test: Renin fluorescence assay (internally quenched peptide substrate)
Type: biochemical
Details: compounds I*
Procedure: The sequence of this peptide corresponds to the sequence of human angiotensinogen. The following test protocol can be used. All reactions are carried out in a flat bottom white opaque microtiter plate. A 4 μL aliquot of 400 μM renin substrate (DABCYL-γ-[…]) in 192 μL assay buffer (50 mM BES, 150 mM NaCl, 0.25 mg/mL bovine serum albumin, pH7.0) is added to 4 μL of test compound in DMSO at various concentrations ranging from 10 μM to 1 nM final concentrations. Next, 100 μL of trypsin-activated recombinant human renin (final enzyme concentration of 0.2-2 nM) in assay buffer is added, and the solution is mixed by pipetting. The increase in fluorescence at 495 nm (excitation at 340 nm) is measured for 60-360 minutes at rt using a Perkin-Elmer Fusion microplate reader. The slope of a linear portion of the plot of fluorescence-increase as a function of time is then determined, and the rate is used for calculating percent inhibition in relation to uninhibited control. […] (Wang G. T. et al. Anal. Biochem. 1993, 210, 351; Nakamura, N. et al. J. Biochem. (Tokyo) 1991, 109, 741; Murakami, K. et al. Anal Biochem. 1981, 110, 232).

| IC50 [nM] | Compound |
| --- | --- |
| < 10 | CNC[C@H](C[C@H]1CCCCOC1)NC(=O)N1CCC[C@@H]([C@@H](OCCNC(=O)OC)c2ccccc2)C1 [I*-21a, Methyl 2-((R)—((R)-1-((S)-1-(methylamino)-3-((R)-oxepan-3-yl)propan-2-ylcarbamoyl)piperidin-3-yl)(phenyl)methoxy)ethylcarbamate] |
| < 10 | CNC[C@H](C[C@H]1CCCOCC1)NC(=O)N1CCC[C@@H]([C@@H](OCCNC(=O)OC)c2cccc(Cl)c2)C1 [I*-98a, methyl 2-((R)-(3-chlorophenyl)((R)-1-((S)-1-(methylamino)-3-((R)-oxepan-4-yl)propan-2-yl-carbamoyl)piperidin-3-yl)methoxy)ethylcarbamate] |
| < 10 | CNC[C@@H](NC(=O)N1CCC[C@@H]([C@@H](OCCNC(=O)OC)c2cccc(Cl)c2)C1)[C@@H](O)C1CCCC1 [I*-67a, methyl 2-((R)-(3-chlorophenyl)((R)-1-((1S,2R)-1-cyclopentyl-1-hydroxy-3-(methylamino)propan-2-ylcarbamoyl)piperidin-3-yl)methoxy)ethylcarbamate] |
| < 1 | CNC[C@@H](NC(=O)N1CCC[C@@H]([C@@H](OCCNC(=O)OC)c2cccc(Cl)c2)C1)[C@@H](O)C1CCCCC1 [I*-100a, methyl 2-((R)-(3-chlorophenyl)((R)-1-((1S,2R)-1-cyclohexyl-1-hydroxy-3-(methylamino)propan-2-ylcarbamoyl)piperidin-3-yl)methoxy)ethylcarbamate] |

Second part, the molecule before the results:

| Compound | IC50 [nM] |
| --- | --- |
| CNC[C@H](C[C@H]1C[C@@H](F)[C@@H](F)C1)NC(=O)N1CCC[C@@H]([C@@H](OCCNC(=O)OC)c2cccc(Cl)c2)C1 [I*-124a, methyl 2-((R)-(3-chlorophenyl)((R)-1-((S)-1-((1r,3S,4R)-3,4-difluorocyclopentyl)-3-(methylamino)propan-2-ylcarbamoyl)piperidin-3-yl)methoxy)ethylcarbamate] | < 20 |
| CNC[C@@H](NC(=O)N1CCC[C@@H]([C@@H](OCCNC(=O)OC)c2cccc(F)c2)C1)[C@@H](O)C1CCCC1 [I*-27a, methyl 2-((R)-((R)-1-((1S,2R)-1-cyclopentyl-1-hydroxy-3-(methylamino)propan-2-ylcarbamoyl)piperidin-3-yl)(3-fluorophenyl)methoxy)ethylcarbamate] | < 10 |
| COC(=O)NCCO[C@@H](c1cccc(Cl)c1)[C@@H]1CCCN(C(=O)N[C@H]2CNC[C@@H]2CC(C)C)C1 (relative stereo) [I*-11a, methyl 2-((R)-(3-chlorophenyl)((R)-1-((3R*,4S*)-4-isobutylpyrrolidin-3-ylcarbamoyl)piperidin-3-yl)methoxy)ethylcarbamate] | < 50 |
| COC(=O)NCCO[C@@H](c1cc(F)ccc1C)[C@@H]1CCCN(C(=O)NC[C@@H](N)C[C@H]2CCCCOC2)C1 [I*-58a, methyl 2-((R)-((R)-1-((S)-2-amino-3-((R)-oxepan-3-yl)propylcarbamoyl)piperidin-3-yl)(5-fluoro-2-methylphenyl)methoxy)ethylcarbamate] | < 10 |
| CNC[C@H](CC1CCOCC1)NC(=O)N1CCC[C@@H]([C@@H](OCCNC(=O)OC)c2ccc(F)c(Cl)c2F)C1 [I*-148a, methyl 2-((R)-(3-chloro-2,4-difluorophenyl)((R)-1-((S)-1-(methylamino)-3-(tetrahydro-2H-pyran-4-yl)propan-2-ylcarbamoyl)piperidin-3-yl)methoxy)ethylcarbamate] | > 50 |
| COC(=O)NCCO[C@@H](c1cc(Cl)ccc1C)[C@@H]1CCCN(C(=O)NC[C@@H](N)C[C@H]2CCCCOC2)C1 [I*-109a, methyl 2-((R)-((R)-1-((S)-2-amino-3-((R)-oxepan-3-yl)propylcarbamoyl)piperidin-3-yl)(5-chloro-2-methylphenyl)methoxy)ethylcarbamate] | < 1 |
